# Source: publication PMC5540273, “Progress towards a public chemogenomic set for protein kinases and a call for contributions” (PLoS ONE, 2017)
# Target: T1, ACVR1B (Homo sapiens, UniProt P36896)
# T1 sequence (P36896 24-505): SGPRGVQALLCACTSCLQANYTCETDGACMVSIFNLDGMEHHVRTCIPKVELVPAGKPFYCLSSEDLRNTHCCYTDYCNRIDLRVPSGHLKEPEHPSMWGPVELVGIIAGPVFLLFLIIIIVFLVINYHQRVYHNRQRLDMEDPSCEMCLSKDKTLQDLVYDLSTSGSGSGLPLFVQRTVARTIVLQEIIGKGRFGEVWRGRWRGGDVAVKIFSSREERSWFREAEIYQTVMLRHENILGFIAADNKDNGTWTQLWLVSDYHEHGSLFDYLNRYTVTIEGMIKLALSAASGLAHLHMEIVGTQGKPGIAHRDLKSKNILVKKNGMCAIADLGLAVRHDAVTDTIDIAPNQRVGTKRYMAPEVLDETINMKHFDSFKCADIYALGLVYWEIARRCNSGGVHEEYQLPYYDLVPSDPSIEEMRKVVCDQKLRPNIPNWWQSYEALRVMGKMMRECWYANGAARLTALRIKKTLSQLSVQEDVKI
# Assay: KINOMEscan competition binding
# Details: read-out: %Inh ACVR1B
row,Structure (SMILES),inhibition at 1 µM [%]
1,O=c1cc(N2CCOCC2)nc2n(Cc3cccc(Cl)c3Cl)c(C3CC3)nn12 [UNC10225469A],0
2,Cn1cc(-c2cnc(N)c3c(-c4ccc5c(c4)CCN5C(=O)Cc4ccccc4)csc23)cn1 [UNC10225012A],9
3,CS(=O)(=O)Cc1ccc(Nc2nccc(-c3c(-c4cccc(NC(=O)C5CCCCC5)c4)nn4ncccc34)n2)cc1 [UNC10225159A],0
4,COc1cccc(OC)c1C(=O)Nc1cccc(-c2nn3ccccc3c2-c2ccnc(Nc3cccc(F)c3)n2)c1 [UNC10225310A],15
5,Cc1ccc(NC(=O)Nc2cccc(C(F)(F)F)c2)cc1 [UNC10225187A],85

# Target: ADCK3 (Homo sapiens, UniProt Q8NI60)
# Assay: KINOMEscan competition binding
# Details: read-out: %Inh ADCK3
# ADCK3, sequence (Q8NI60 163-647): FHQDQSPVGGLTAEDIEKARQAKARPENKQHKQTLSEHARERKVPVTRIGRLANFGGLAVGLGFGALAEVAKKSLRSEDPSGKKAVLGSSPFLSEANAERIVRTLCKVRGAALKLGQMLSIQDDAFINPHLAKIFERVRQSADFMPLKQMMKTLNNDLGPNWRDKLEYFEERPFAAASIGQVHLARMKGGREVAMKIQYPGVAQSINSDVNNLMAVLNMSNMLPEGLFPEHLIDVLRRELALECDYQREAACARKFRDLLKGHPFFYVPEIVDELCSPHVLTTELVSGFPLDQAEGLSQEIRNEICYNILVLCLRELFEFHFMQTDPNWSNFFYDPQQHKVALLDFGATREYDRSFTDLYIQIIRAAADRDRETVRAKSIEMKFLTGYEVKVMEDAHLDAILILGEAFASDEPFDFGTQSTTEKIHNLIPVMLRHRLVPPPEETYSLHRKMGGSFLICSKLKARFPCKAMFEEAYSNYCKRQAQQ
row,Structure (SMILES),inhibition at 1 µM [%]
1,O=c1cc(N2CCOCC2)nc2n(Cc3cccc(Cl)c3Cl)c(C3CC3)nn12 [UNC10225469A],11
2,Cn1cc(-c2cnc(N)c3c(-c4ccc5c(c4)CCN5C(=O)Cc4ccccc4)csc23)cn1 [UNC10225012A],7
3,CS(=O)(=O)Cc1ccc(Nc2nccc(-c3c(-c4cccc(NC(=O)C5CCCCC5)c4)nn4ncccc34)n2)cc1 [UNC10225159A],24
4,COc1cccc(OC)c1C(=O)Nc1cccc(-c2nn3ccccc3c2-c2ccnc(Nc3cccc(F)c3)n2)c1 [UNC10225310A],0
5,Cc1ccc(NC(=O)Nc2cccc(C(F)(F)F)c2)cc1 [UNC10225187A],5

# Target: T2, CDKL5 (Homo sapiens, UniProt O76039)
# T2 sequence (O76039 1-960): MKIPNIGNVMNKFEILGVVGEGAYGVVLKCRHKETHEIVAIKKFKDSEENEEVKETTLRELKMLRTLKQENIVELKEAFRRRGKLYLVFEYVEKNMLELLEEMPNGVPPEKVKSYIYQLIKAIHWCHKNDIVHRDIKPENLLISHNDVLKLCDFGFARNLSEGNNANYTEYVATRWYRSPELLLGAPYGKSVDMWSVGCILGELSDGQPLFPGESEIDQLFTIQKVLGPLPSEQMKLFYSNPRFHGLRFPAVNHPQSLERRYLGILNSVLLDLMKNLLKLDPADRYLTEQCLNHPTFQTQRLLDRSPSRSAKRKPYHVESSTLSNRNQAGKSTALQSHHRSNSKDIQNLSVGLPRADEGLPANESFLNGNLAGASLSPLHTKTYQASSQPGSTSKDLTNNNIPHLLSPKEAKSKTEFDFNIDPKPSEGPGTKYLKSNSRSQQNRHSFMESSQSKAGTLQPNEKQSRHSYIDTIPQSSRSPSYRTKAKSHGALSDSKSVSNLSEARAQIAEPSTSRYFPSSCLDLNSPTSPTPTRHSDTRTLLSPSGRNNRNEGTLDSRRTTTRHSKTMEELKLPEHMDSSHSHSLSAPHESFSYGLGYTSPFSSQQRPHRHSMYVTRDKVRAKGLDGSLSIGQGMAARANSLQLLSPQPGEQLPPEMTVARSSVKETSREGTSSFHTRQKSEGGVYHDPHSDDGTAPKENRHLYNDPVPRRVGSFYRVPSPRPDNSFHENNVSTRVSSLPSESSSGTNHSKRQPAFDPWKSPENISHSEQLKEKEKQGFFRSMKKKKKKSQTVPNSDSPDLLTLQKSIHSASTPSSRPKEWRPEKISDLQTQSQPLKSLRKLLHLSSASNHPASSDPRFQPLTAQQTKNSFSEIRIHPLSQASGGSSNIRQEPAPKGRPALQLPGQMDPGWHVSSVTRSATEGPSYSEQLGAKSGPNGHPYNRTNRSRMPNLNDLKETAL
# Assay: KINOMEscan competition binding
# Details: read-out: %Inh CDKL5
row,Structure (SMILES),inhibition at 1 µM [%]
1,O=c1cc(N2CCOCC2)nc2n(Cc3cccc(Cl)c3Cl)c(C3CC3)nn12 [UNC10225469A],0
2,Cn1cc(-c2cnc(N)c3c(-c4ccc5c(c4)CCN5C(=O)Cc4ccccc4)csc23)cn1 [UNC10225012A],0
3,CS(=O)(=O)Cc1ccc(Nc2nccc(-c3c(-c4cccc(NC(=O)C5CCCCC5)c4)nn4ncccc34)n2)cc1 [UNC10225159A],33
4,COc1cccc(OC)c1C(=O)Nc1cccc(-c2nn3ccccc3c2-c2ccnc(Nc3cccc(F)c3)n2)c1 [UNC10225310A],0
5,Cc1ccc(NC(=O)Nc2cccc(C(F)(F)F)c2)cc1 [UNC10225187A],0

# Target: T3, DCAMKL1 (Homo sapiens, UniProt O15075)
# T3 sequence (O15075 1-740): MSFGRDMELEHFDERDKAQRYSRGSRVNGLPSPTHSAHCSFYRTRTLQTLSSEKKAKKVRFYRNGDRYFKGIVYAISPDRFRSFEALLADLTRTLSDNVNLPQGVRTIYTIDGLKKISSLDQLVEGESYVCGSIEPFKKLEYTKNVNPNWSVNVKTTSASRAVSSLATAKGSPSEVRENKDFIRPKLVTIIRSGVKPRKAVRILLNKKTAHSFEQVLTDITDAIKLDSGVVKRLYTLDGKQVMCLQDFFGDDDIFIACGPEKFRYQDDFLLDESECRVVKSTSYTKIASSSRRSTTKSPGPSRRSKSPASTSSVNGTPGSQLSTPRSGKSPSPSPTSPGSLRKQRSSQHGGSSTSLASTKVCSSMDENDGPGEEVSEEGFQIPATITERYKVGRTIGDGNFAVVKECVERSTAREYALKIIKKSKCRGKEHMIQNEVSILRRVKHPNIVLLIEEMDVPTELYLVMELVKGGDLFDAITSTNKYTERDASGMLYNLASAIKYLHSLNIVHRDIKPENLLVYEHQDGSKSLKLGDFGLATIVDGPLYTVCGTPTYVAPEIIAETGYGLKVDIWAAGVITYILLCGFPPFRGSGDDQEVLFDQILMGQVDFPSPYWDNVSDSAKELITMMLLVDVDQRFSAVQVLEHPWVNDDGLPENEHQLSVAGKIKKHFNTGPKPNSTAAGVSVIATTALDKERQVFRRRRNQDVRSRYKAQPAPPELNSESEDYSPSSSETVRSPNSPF
# Assay: KINOMEscan competition binding
# Details: read-out: %Inh DCAMKL1
row,Structure (SMILES),inhibition at 1 µM [%]
1,O=c1cc(N2CCOCC2)nc2n(Cc3cccc(Cl)c3Cl)c(C3CC3)nn12 [UNC10225469A],0
2,Cn1cc(-c2cnc(N)c3c(-c4ccc5c(c4)CCN5C(=O)Cc4ccccc4)csc23)cn1 [UNC10225012A],0
3,CS(=O)(=O)Cc1ccc(Nc2nccc(-c3c(-c4cccc(NC(=O)C5CCCCC5)c4)nn4ncccc34)n2)cc1 [UNC10225159A],0
4,COc1cccc(OC)c1C(=O)Nc1cccc(-c2nn3ccccc3c2-c2ccnc(Nc3cccc(F)c3)n2)c1 [UNC10225310A],16
5,Cc1ccc(NC(=O)Nc2cccc(C(F)(F)F)c2)cc1 [UNC10225187A],0

# Target: IGF1R (Homo sapiens, UniProt P08069)
# Assay: KINOMEscan competition binding
# Details: read-out: %Inh IGF1R
row,Structure (SMILES),inhibition at 1 µM [%]
1,O=c1cc(N2CCOCC2)nc2n(Cc3cccc(Cl)c3Cl)c(C3CC3)nn12 [UNC10225469A],0
2,Cn1cc(-c2cnc(N)c3c(-c4ccc5c(c4)CCN5C(=O)Cc4ccccc4)csc23)cn1 [UNC10225012A],0
3,CS(=O)(=O)Cc1ccc(Nc2nccc(-c3c(-c4cccc(NC(=O)C5CCCCC5)c4)nn4ncccc34)n2)cc1 [UNC10225159A],68
4,COc1cccc(OC)c1C(=O)Nc1cccc(-c2nn3ccccc3c2-c2ccnc(Nc3cccc(F)c3)n2)c1 [UNC10225310A],7
5,Cc1ccc(NC(=O)Nc2cccc(C(F)(F)F)c2)cc1 [UNC10225187A],0

# Target: FLT4 (Homo sapiens, UniProt P35916)
# Assay: KINOMEscan competition binding
# Details: read-out: %Inh FLT4
# FLT4, sequence (P35916 25-1363): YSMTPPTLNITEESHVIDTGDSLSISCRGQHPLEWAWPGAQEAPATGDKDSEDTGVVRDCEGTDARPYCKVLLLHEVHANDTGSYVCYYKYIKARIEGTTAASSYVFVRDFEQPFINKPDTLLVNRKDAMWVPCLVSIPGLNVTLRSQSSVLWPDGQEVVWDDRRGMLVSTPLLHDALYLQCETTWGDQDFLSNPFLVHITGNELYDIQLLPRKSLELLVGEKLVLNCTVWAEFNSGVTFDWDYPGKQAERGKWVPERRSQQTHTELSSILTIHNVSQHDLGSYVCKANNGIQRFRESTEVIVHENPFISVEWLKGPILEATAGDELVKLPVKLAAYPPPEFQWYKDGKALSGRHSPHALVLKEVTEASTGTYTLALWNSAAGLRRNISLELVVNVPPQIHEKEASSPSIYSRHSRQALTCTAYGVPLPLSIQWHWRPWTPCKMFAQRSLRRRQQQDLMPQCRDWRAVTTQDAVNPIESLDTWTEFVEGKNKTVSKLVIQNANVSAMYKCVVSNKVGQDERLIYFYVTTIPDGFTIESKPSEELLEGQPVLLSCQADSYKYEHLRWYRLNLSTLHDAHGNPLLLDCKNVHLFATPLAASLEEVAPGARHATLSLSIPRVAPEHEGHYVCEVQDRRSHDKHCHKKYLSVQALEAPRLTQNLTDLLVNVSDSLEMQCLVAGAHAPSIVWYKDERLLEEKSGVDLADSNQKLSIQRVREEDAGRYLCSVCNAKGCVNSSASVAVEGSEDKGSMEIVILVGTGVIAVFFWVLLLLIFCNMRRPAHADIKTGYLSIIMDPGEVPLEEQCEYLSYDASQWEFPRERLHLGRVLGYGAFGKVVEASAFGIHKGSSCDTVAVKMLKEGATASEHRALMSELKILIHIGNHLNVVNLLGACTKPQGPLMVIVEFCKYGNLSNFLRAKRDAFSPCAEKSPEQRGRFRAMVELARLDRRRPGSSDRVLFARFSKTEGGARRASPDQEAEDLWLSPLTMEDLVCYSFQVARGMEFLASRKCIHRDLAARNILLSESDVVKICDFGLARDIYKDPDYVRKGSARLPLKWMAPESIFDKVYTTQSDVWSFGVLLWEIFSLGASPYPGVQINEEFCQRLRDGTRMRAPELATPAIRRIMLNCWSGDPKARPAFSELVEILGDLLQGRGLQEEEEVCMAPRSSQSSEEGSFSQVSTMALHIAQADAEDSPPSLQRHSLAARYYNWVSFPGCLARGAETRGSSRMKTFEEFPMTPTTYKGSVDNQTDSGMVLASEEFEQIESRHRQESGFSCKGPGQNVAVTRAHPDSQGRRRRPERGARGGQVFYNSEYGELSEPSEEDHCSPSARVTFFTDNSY
row,Structure (SMILES),inhibition at 1 µM [%]
1,O=c1cc(N2CCOCC2)nc2n(Cc3cccc(Cl)c3Cl)c(C3CC3)nn12 [UNC10225469A],10
2,Cn1cc(-c2cnc(N)c3c(-c4ccc5c(c4)CCN5C(=O)Cc4ccccc4)csc23)cn1 [UNC10225012A],31
3,CS(=O)(=O)Cc1ccc(Nc2nccc(-c3c(-c4cccc(NC(=O)C5CCCCC5)c4)nn4ncccc34)n2)cc1 [UNC10225159A],52
4,COc1cccc(OC)c1C(=O)Nc1cccc(-c2nn3ccccc3c2-c2ccnc(Nc3cccc(F)c3)n2)c1 [UNC10225310A],27
5,Cc1ccc(NC(=O)Nc2cccc(C(F)(F)F)c2)cc1 [UNC10225187A],12

# Target: AKT1 (Homo sapiens, UniProt P31749)
# Assay: KINOMEscan competition binding
# Details: read-out: %Inh AKT1
# AKT1, sequence (P31749 whole entry): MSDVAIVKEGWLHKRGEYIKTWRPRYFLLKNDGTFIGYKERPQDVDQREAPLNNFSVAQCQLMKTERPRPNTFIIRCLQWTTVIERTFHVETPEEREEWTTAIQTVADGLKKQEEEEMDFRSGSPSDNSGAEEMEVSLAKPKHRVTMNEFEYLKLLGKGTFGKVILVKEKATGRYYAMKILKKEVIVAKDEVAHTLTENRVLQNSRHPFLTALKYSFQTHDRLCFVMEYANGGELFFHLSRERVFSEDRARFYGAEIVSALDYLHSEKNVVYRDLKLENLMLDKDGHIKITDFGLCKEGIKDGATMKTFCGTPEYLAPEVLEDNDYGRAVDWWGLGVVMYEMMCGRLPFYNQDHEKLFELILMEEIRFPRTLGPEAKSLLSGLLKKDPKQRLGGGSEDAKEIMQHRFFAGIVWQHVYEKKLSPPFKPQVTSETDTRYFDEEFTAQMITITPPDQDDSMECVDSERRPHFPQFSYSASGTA
row,Structure (SMILES),inhibition at 1 µM [%]
1,O=c1cc(N2CCOCC2)nc2n(Cc3cccc(Cl)c3Cl)c(C3CC3)nn12 [UNC10225469A],12
2,Cn1cc(-c2cnc(N)c3c(-c4ccc5c(c4)CCN5C(=O)Cc4ccccc4)csc23)cn1 [UNC10225012A],14
3,CS(=O)(=O)Cc1ccc(Nc2nccc(-c3c(-c4cccc(NC(=O)C5CCCCC5)c4)nn4ncccc34)n2)cc1 [UNC10225159A],23
4,COc1cccc(OC)c1C(=O)Nc1cccc(-c2nn3ccccc3c2-c2ccnc(Nc3cccc(F)c3)n2)c1 [UNC10225310A],4
5,Cc1ccc(NC(=O)Nc2cccc(C(F)(F)F)c2)cc1 [UNC10225187A],12

# Target: EPHA4 (Homo sapiens, UniProt P54764)
# Assay: KINOMEscan competition binding
# Details: read-out: %Inh EPHA4
# EPHA4, sequence (P54764 20-986): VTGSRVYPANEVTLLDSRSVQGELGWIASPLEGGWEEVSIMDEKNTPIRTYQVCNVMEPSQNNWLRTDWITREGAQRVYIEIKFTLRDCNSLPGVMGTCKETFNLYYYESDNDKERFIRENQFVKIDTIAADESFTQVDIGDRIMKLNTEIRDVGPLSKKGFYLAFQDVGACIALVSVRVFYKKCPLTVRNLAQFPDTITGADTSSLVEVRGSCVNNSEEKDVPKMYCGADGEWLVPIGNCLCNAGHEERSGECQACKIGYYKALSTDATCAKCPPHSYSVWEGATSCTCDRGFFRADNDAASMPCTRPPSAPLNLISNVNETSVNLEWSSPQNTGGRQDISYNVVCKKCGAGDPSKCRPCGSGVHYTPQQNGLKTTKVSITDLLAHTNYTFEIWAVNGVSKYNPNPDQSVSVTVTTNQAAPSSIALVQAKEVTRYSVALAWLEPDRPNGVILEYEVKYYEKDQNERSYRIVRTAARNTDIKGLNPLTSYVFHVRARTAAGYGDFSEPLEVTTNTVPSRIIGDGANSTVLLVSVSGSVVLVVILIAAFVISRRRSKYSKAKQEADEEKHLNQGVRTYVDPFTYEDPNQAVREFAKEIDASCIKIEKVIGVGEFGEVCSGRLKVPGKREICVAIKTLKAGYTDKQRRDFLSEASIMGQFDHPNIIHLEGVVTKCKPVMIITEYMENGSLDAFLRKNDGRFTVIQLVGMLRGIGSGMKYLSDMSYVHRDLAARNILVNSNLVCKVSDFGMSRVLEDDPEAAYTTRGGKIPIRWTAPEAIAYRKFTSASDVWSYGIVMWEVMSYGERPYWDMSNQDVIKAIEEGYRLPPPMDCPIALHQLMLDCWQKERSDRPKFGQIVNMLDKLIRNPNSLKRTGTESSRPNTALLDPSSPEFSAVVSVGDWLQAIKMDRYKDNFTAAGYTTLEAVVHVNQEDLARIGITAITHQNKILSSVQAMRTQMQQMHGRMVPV
row,Structure (SMILES),inhibition at 1 µM [%]
1,O=c1cc(N2CCOCC2)nc2n(Cc3cccc(Cl)c3Cl)c(C3CC3)nn12 [UNC10225469A],11
2,Cn1cc(-c2cnc(N)c3c(-c4ccc5c(c4)CCN5C(=O)Cc4ccccc4)csc23)cn1 [UNC10225012A],11
3,CS(=O)(=O)Cc1ccc(Nc2nccc(-c3c(-c4cccc(NC(=O)C5CCCCC5)c4)nn4ncccc34)n2)cc1 [UNC10225159A],14
4,COc1cccc(OC)c1C(=O)Nc1cccc(-c2nn3ccccc3c2-c2ccnc(Nc3cccc(F)c3)n2)c1 [UNC10225310A],0
5,Cc1ccc(NC(=O)Nc2cccc(C(F)(F)F)c2)cc1 [UNC10225187A],6

# Target: AAK1 (Homo sapiens, UniProt Q2M2I8)
# Assay: KINOMEscan competition binding
# Details: read-out: %Inh AAK1
# AAK1, sequence (Q2M2I8 whole entry): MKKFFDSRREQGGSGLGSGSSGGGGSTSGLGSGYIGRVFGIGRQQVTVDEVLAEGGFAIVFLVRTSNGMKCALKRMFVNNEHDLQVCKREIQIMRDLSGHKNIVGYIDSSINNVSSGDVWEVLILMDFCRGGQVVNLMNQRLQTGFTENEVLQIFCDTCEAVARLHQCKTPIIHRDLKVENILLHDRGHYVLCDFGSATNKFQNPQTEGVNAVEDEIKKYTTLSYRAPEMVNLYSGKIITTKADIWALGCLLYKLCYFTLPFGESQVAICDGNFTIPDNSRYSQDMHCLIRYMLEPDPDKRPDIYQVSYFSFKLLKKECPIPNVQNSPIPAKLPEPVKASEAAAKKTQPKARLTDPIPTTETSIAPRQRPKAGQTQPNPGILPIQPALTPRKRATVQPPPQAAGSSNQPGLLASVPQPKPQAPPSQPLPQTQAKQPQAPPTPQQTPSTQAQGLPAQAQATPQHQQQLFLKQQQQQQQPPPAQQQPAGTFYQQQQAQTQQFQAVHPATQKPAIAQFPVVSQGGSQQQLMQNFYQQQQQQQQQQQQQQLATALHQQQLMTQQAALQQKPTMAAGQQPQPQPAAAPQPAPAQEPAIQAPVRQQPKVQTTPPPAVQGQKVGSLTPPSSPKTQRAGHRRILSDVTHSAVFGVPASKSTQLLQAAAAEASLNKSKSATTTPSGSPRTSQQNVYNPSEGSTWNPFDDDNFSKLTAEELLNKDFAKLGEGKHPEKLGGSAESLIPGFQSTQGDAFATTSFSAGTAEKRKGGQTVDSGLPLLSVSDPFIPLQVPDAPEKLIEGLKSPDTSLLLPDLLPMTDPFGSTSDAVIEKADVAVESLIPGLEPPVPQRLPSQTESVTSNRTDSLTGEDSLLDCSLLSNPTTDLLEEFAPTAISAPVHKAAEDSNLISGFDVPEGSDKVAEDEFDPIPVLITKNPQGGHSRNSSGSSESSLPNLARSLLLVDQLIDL
row,Structure (SMILES),inhibition at 1 µM [%]
1,O=c1cc(N2CCOCC2)nc2n(Cc3cccc(Cl)c3Cl)c(C3CC3)nn12 [UNC10225469A],14
2,Cn1cc(-c2cnc(N)c3c(-c4ccc5c(c4)CCN5C(=O)Cc4ccccc4)csc23)cn1 [UNC10225012A],0
3,CS(=O)(=O)Cc1ccc(Nc2nccc(-c3c(-c4cccc(NC(=O)C5CCCCC5)c4)nn4ncccc34)n2)cc1 [UNC10225159A],0
4,COc1cccc(OC)c1C(=O)Nc1cccc(-c2nn3ccccc3c2-c2ccnc(Nc3cccc(F)c3)n2)c1 [UNC10225310A],0
5,Cc1ccc(NC(=O)Nc2cccc(C(F)(F)F)c2)cc1 [UNC10225187A],26

# Target: ABL2 (Homo sapiens, UniProt P42684)
# Assay: KINOMEscan competition binding
# Details: read-out: %Inh ABL2
row,Structure (SMILES),inhibition at 1 µM [%]
1,O=c1cc(N2CCOCC2)nc2n(Cc3cccc(Cl)c3Cl)c(C3CC3)nn12 [UNC10225469A],5
2,Cn1cc(-c2cnc(N)c3c(-c4ccc5c(c4)CCN5C(=O)Cc4ccccc4)csc23)cn1 [UNC10225012A],81
3,CS(=O)(=O)Cc1ccc(Nc2nccc(-c3c(-c4cccc(NC(=O)C5CCCCC5)c4)nn4ncccc34)n2)cc1 [UNC10225159A],5
4,COc1cccc(OC)c1C(=O)Nc1cccc(-c2nn3ccccc3c2-c2ccnc(Nc3cccc(F)c3)n2)c1 [UNC10225310A],100
5,Cc1ccc(NC(=O)Nc2cccc(C(F)(F)F)c2)cc1 [UNC10225187A],3

# Target: BMPR1B (Homo sapiens, UniProt O00238)
# Assay: KINOMEscan competition binding
# Details: read-out: %Inh BMPR1B
# BMPR1B, sequence (O00238 14-502): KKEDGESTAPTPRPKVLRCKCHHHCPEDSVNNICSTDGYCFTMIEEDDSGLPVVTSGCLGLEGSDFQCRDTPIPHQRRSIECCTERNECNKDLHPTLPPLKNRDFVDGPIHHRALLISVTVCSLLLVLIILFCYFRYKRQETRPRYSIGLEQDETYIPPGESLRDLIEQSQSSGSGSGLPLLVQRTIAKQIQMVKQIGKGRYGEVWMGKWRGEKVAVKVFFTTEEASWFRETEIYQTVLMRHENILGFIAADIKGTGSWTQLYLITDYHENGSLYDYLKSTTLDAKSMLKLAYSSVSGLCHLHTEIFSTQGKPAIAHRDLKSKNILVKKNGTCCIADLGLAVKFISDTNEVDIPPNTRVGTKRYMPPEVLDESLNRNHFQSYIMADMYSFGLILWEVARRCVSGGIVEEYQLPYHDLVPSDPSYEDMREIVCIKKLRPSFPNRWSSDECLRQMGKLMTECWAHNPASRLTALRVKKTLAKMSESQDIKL
row,Structure (SMILES),inhibition at 1 µM [%]
1,O=c1cc(N2CCOCC2)nc2n(Cc3cccc(Cl)c3Cl)c(C3CC3)nn12 [UNC10225469A],0
2,Cn1cc(-c2cnc(N)c3c(-c4ccc5c(c4)CCN5C(=O)Cc4ccccc4)csc23)cn1 [UNC10225012A],6
3,CS(=O)(=O)Cc1ccc(Nc2nccc(-c3c(-c4cccc(NC(=O)C5CCCCC5)c4)nn4ncccc34)n2)cc1 [UNC10225159A],19
4,COc1cccc(OC)c1C(=O)Nc1cccc(-c2nn3ccccc3c2-c2ccnc(Nc3cccc(F)c3)n2)c1 [UNC10225310A],21
5,Cc1ccc(NC(=O)Nc2cccc(C(F)(F)F)c2)cc1 [UNC10225187A],0
